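Cells were grown in 96-well plates and exposed to each compound for 48 hours at five concentrations; endpoints were interpolated linearly between bracketing concentrations, or set to the highest concentration if not reached. GI50 = concentration required for 50% inhibition of growth. The concentration for full growth arrest is given as TGI.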
Assays:
Assay in all cases: NCI anticancer screen, dose series, 48 h
SR leukemia = tested on: SR leukemia
OVCAR-5 ovarian = tested on: OVCAR-5 ovarian
HOP-92 NSCLC = tested on: HOP-92 NSCLC
SK-MEL-28 melanoma = tested on: SK-MEL-28 melanoma
PC-3 prostate = tested on: PC-3 prostate
A498 renal = tested on: A498 renal
MDA-MB-435 = tested on: MDA-MB-435
HS 578T breast = tested on: HS 578T breast
IGROV1 ovarian = tested on: IGROV1 ovarian
LOX IMVI melanoma = tested on: LOX IMVI melanoma
SF-268 CNS = tested on: SF-268 CNS
SNB-75 CNS = tested on: SNB-75 CNS
COLO 205 colon = tested on: COLO 205 colon
786-0 renal = tested on: 786-0 renal
SK-MEL-2 melanoma = tested on: SK-MEL-2 melanoma
K-562 leukemia = tested on: K-562 leukemia
SNB-19 CNS = tested on: SNB-19 CNS
TK-10 renal = tested on: TK-10 renal
MDA-MB-231 breast = tested on: MDA-MB-231 breast
HCT-116 colon = tested on: HCT-116 colon
KM12 colon = tested on: KM12 colon
BT-549 breast = tested on: BT-549 breast
HCC-2998 colon = tested on: HCC-2998 colon
SW-620 colon = tested on: SW-620 colon
U251 CNS = tested on: U251 CNS
HT29 colon = tested on: HT29 colon
MOLT-4 leukemia = tested on: MOLT-4 leukemia
UACC-62 melanoma = tested on: UACC-62 melanoma
ACHN renal = tested on: ACHN renal
CAKI-1 renal = tested on: CAKI-1 renal
NCI-H460 lung = tested on: NCI-H460 lung
SF-539 CNS = tested on: SF-539 CNS
SK-OV-3 ovarian = tested on: SK-OV-3 ovarian
OVCAR-4 ovarian = tested on: OVCAR-4 ovarian
HOP-62 NSCLC = tested on: HOP-62 NSCLC
RPMI-8226 leukemia = tested on: RPMI-8226 leukemia
NCI-H23 lung = tested on: NCI-H23 lung
NCI/ADR-RES ovarian = tested on: NCI/ADR-RES ovarian
SN12C renal = tested on: SN12C renal
EKVX NSCLC = tested on: EKVX NSCLC
UO-31 renal = tested on: UO-31 renal
T-47D breast = tested on: T-47D breast
OVCAR-3 ovarian = tested on: OVCAR-3 ovarian
DU-145 prostate = tested on: DU-145 prostate
NCI-H226 lung = tested on: NCI-H226 lung
UACC-257 melanoma = tested on: UACC-257 melanoma
A549 NSCLC = tested on: A549 NSCLC
SK-MEL-5 melanoma = tested on: SK-MEL-5 melanoma
MCF7 breast = tested on: MCF7 breast
RXF 393 renal = tested on: RXF 393 renal
OVCAR-8 ovarian = tested on: OVCAR-8 ovarian
HCT-15 colon = tested on: HCT-15 colon
M14 melanoma = tested on: M14 melanoma
SF-295 CNS = tested on: SF-295 CNS
NCI-H522 lung = tested on: NCI-H522 lung
HL-60(TB) leukemia = tested on: HL-60(TB) leukemia

COc1ccc(NC(=O)c2ccc(NC3=C(Cl)C(=O)N(Cc4ccccc4)C3=O)cc2)cc1
GI50 (SR leukemia): 0.766 µM | TGI (SR leukemia): 3.61 µM | GI50 (OVCAR-5 ovarian): 14.8 µM | TGI (OVCAR-5 ovarian): 28.8 µM | GI50 (HOP-92 NSCLC): 3.63 µM | TGI (HOP-92 NSCLC): 13.8 µM | GI50 (SK-MEL-28 melanoma): 10.1 µM | TGI (SK-MEL-28 melanoma): 31.6 µM | GI50 (PC-3 prostate): 6.74 µM | TGI (PC-3 prostate): 19.9 µM | GI50 (A498 renal): 16.8 µM | TGI (A498 renal): 34.8 µM | GI50 (MDA-MB-435): 5.64 µM | TGI (MDA-MB-435): 18.3 µM | GI50 (HS 578T breast): 15 µM | TGI (HS 578T breast): 62.9 µM | GI50 (IGROV1 ovarian): 1.5 µM | TGI (IGROV1 ovarian): 3.93 µM | GI50 (LOX IMVI melanoma): 3.06 µM | TGI (LOX IMVI melanoma): 8.43 µM | GI50 (SF-268 CNS): 31.5 µM | TGI (SF-268 CNS): > 100 µM | GI50 (SNB-75 CNS): 12.9 µM | TGI (SNB-75 CNS): 34.6 µM | GI50 (COLO 205 colon): 10.9 µM | TGI (COLO 205 colon): > 100 µM | GI50 (786-0 renal): 2.89 µM | TGI (786-0 renal): 7.97 µM | GI50 (SK-MEL-2 melanoma): 10.4 µM | TGI (SK-MEL-2 melanoma): 56.1 µM | GI50 (K-562 leukemia): 4.02 µM | TGI (K-562 leukemia): 64.8 µM | GI50 (SNB-19 CNS): 18 µM | TGI (SNB-19 CNS): 40.4 µM | GI50 (TK-10 renal): 22.1 µM | TGI (TK-10 renal): 38 µM | GI50 (MDA-MB-231 breast): 11.9 µM | TGI (MDA-MB-231 breast): 26.2 µM | GI50 (HCT-116 colon): 2.36 µM | TGI (HCT-116 colon): 4.89 µM | GI50 (KM12 colon): 16.8 µM | TGI (KM12 colon): 38.2 µM | GI50 (BT-549 breast): 8.27 µM | TGI (BT-549 breast): 26.2 µM | GI50 (HCC-2998 colon): 15.6 µM | TGI (HCC-2998 colon): 31.1 µM | GI50 (SW-620 colon): 4.83 µM | TGI (SW-620 colon): > 100 µM | GI50 (U251 CNS): 13.3 µM | TGI (U251 CNS): 30.5 µM | GI50 (HT29 colon): 11.5 µM | TGI (HT29 colon): 90.3 µM | GI50 (MOLT-4 leukemia): 2.6 µM | TGI (MOLT-4 leukemia): > 100 µM | GI50 (UACC-62 melanoma): 16.3 µM | TGI (UACC-62 melanoma): 36.8 µM | GI50 (ACHN renal): 3.64 µM | TGI (ACHN renal): 12.7 µM | GI50 (CAKI-1 renal): 1.89 µM | TGI (CAKI-1 renal): 3.5 µM | GI50 (NCI-H460 lung): 53.1 µM | TGI (NCI-H460 lung): > 100 µM | GI50 (SF-539 CNS): 3.29 µM | TGI (SF-539 CNS): 11.8 µM | GI50 (SK-OV-3 ovarian): 18.4 µM | TGI (SK-OV-3 ovarian): 36.2 µM | GI50 (OVCAR-4 ovarian): 3.01 µM | TGI (OVCAR-4 ovarian): 8.35 µM | GI50 (HOP-62 NSCLC): 17.1 µM | TGI (HOP-62 NSCLC): 32.6 µM | GI50 (RPMI-8226 leukemia): 2.38 µM | TGI (RPMI-8226 leukemia): 8.06 µM | GI50 (NCI-H23 lung): 8.38 µM | TGI (NCI-H23 lung): 30 µM | GI50 (NCI/ADR-RES ovarian): 11.9 µM | TGI (NCI/ADR-RES ovarian): 38.7 µM | GI50 (SN12C renal): 14.4 µM | TGI (SN12C renal): 30.2 µM | GI50 (EKVX NSCLC): 32.1 µM | TGI (EKVX NSCLC): > 100 µM | GI50 (UO-31 renal): 2.66 µM | TGI (UO-31 renal): 11.3 µM | GI50 (T-47D breast): 9.79 µM | TGI (T-47D breast): 77.5 µM | GI50 (OVCAR-3 ovarian): 2.11 µM | TGI (OVCAR-3 ovarian): 6.12 µM | GI50 (DU-145 prostate): 5 µM | TGI (DU-145 prostate): 24.3 µM | GI50 (NCI-H226 lung): 14.5 µM | TGI (NCI-H226 lung): 35.9 µM | GI50 (UACC-257 melanoma): 9.14 µM | TGI (UACC-257 melanoma): 24.8 µM | GI50 (A549 NSCLC): 10.4 µM | TGI (A549 NSCLC): 29.9 µM | GI50 (SK-MEL-5 melanoma): 10 µM | TGI (SK-MEL-5 melanoma): 32.1 µM | GI50 (MCF7 breast): 7.9 µM | TGI (MCF7 breast): > 100 µM | GI50 (RXF 393 renal): 3.21 µM | TGI (RXF 393 renal): 14.6 µM | GI50 (OVCAR-8 ovarian): 3.84 µM | TGI (OVCAR-8 ovarian): 18.2 µM | GI50 (HCT-15 colon): 4.04 µM | TGI (HCT-15 colon): 17.3 µM | GI50 (M14 melanoma): 9.42 µM | TGI (M14 melanoma): 28.6 µM | GI50 (SF-295 CNS): 3.52 µM | TGI (SF-295 CNS): 10.4 µM | GI50 (NCI-H522 lung): 3.3 µM | TGI (NCI-H522 lung): 13.8 µM | GI50 (HL-60(TB) leukemia): 2.16 µM
